This note sets out measurements from patent publication USRE35801E, “Prophylactic and therapeutic composition for circulatory disorders and method of treatment” (priority 1985, dated 1998).

The subject of this test is myocardial ischemia (isolated heart, cardiac output). In words: Protective action for myocardial ischemia (isolated perfused working heart). Set-up: species or system Wistar strain male rats. The text has this:
Protective action for myocardial ischemia
When coronary blood flow transporting nutritions to cardiac muscles is interrupted (disorder in blood flow) or recirculated (disorder in recirculation) by a certain cause, cardiac muscles will be damaged (disorder of mycardial ischemia). The degree of such disorder in cardiac muscles will be advanced as the period of ischemia state is prolonged to cause various ischemic cardiac disorders such as the so-called myocardial infarction and cardiac insufficiency.
Accordingly, the protective effect of the Compound No. 1, as a typical compound, on cardiac muscles were examined as described below.
In the experiment, Wistar strain male rats weighing 300 to 400 g were used. The heart was extirpated into a Krebs-Henseleit bicarbonate (KH) solution which had been oxygenated with 95% O2 -5% CO2, under anesthesia by intraperitoneal administration of 50 mg/kg of pentobarbital sodium. Immediately after the isolation, a cannula was intubated into the aorta ascendens, and perfusion was started according to the Langendorff method (75 cm H2 O). Subsequently, the cannula was intubated into the left artium. Then, perfusion in accordance with the Langerdorff method was further conducted for 10 minutes, and then the left artium cannula was opened change the mode of perfusion to that of the working heart method (preload 10 cm H2 O, afterload 80 cm H2 O) (American Journal of Physiology, 212, 804, 1967), which was conducted for 15 minutes. Next, in accordance with the method of Ichihara et al (Journal of Cardiovascular Pharmacology, 5, 745, 1983), the afterload on the aorta was released to provide an ischemic state in the cardiac muscles for 20 minutes. Since five minutes before the initiation of the ischemic state, the perfusate was changed to the one containing the test medicine and such perfusate was used also during the period of the ischemic state. Reperfusion was conducted for 30 minutes with a perfusate containing no test medicine with the afterload of 80 cm H2 O. In order to determine the cardiac functions, coronal perfusion flow (CF), cardiac output (CO), heart rate (HR), aorta pressure (AP) and rate pressure product (HR×AP) were measured. The CF was measured by use of a 10 ml measuring cylinder. The CO was measured through a direct blood flow measuring probe (Model FF-030, 30, produced by Nihon Kohden K.K.) disposed immediately in front of the left artium cannula, by use of an electromagnetic blood flow meter (Model MFV-2100, produced by Nihon Kohden K.K.) and an amplifier for bioelectricity (Mode AB-621G, produced by Nihon Kohden K.K,). The AP was measured through a pressure transducer (Model MPU-0.5, produced by Nihon Kohden K.K.) connected to the aortic cannula, by use of an amplifier for distortion pressure (Model AP-601G, produced by Nihon Kohden K.K.). The HR was measured by use of an cardiotacho meter (Model AT-601G, produced by Nihon Kohden K.K.). The rate pressure product (HR×AP) was calculated by multiplying the HR by the aortic pressure.
As the perfusate, a KH solution, which had been oxygenated with 95% O2 -5% CO2 and heated to 37° C. was used. The formulation of the KH solution (unit: mM) is as follows. NaCl 118, KCl 4.7, CaCl2 2.5, MgSO4 1.2, KH2 PO4 1.2, NaHCO3 25 and glucose 11. […]
Changes in the cardiac functions after treatment with the test medicine and recovery thereof at reperfusion are indicated in terms of percentage based on the value measured before the treatment with the test medicine. […]

For `CC1=NN(c2ccccc2)C(=O)C1` [Compound 1, 3-methyl-1-phenyl-2-pyrazolin-5-one], the “protective action for myocardial ischemia (in words)” value was “exhibits protective action for myocardial ischemia”. In addition, where the note is “10^-5 M, 30 minutes after reperfusion after 20 min ischemia, N = 5, mean ± standard error (Table 5)”, the “Recovery of the cardiac output (CO)” value came out at 23.8 ± 14.6%. Moreover, the “Recovery of the cardiac functions (CO 50% or more), percentage” value (30 minutes after reperfusion) was found to be 40%. The “average recovery action based on the cardiac output (CO)” value (30 minutes after reperfusion after 20 min cardiac ischemia) was 24%. The “Number of recovery of the cardiac functions (CO 50% or more)” value (hearts recovered/total, 30 minutes after reperfusion) is reported as 2/5.
